A short description of the data set: pH stability of the ibuprofen amine salt. It counts as physicochemical. Conditions: pH range in which the salt is stable, after tested.

Take `CC(C)Cc1ccc(C(C)C(=O)O)cc1.NC(CO)(CO)CO` (stereo not shown) [ibuprofen amine salt]: the stability entry was “stable between pH 4 and 9”.

Source of the values: US20100022798A1, “Ibuprofen amine salts and synthesis thereof” (NATIONAL CENTRAL UNIVERSITY, priority 2008, published 2010).
